Measurements as given in patent US20250034118A1, “ANTIMALARIAL HEXAHYDROPYRIMIDINE DERIVATIVES” (UCB BIOPHARMA SRL, priority 2021, published 2025).
Counter-ions that a name gives are not always drawn. Like-named read-outs stand apart in the source and are kept apart here.

Tested on: Plasmodium falciparum 3D7 strain
Assay: P. falciparum 3D7 asexual blood stage assay (SYBR green readout)
Type: cell-based
Text: The compounds of the present invention are potent inhibitors of the growth and propagation of the Plasmodium falciparum parasite in human blood.
The assay used to measure the effect of test compounds on a bloodstream stage of Plasmodium falciparum 3D7 strain employs SYBR green as the readout. This is a dye that binds to double stranded deoxyribonucleic acid (DNA) with a resulting increase in fluorescence, allowing detection of P. falciparum DNA in infected erythrocytes, and thereby providing a measure of parasite growth and propagation.
Erythrocytes (A+ blood) were prepared for both parasite culture and assay by washing 4 times with incomplete media (15.9 g RPMI 1640 (25 mM HEPES, L-glutamine), 1 g NaHCO3, 2 g glucose, 400 μL gentacin (500 mg/mL), 2 mL hypoxanthine solution (13.6 g/L in 0.1M NaOH pH 7.3) in 1 litre of media). The cells were centrifuged at 1800 g for 5 minutes, before decanting the supernatant and re-suspending in fresh incomplete media. On the final wash, the cells were re-suspended in complete media (incomplete media with 5 g/L AlbumaxII), and centrifuged at 1800 g for 3 minutes. This cell sediment was treated as 100% haematocrit.
P. falciparum 3D7 was cultured in erythrocytes at 5% haematocrit in complete media at 37° C. (1% O2, 3% CO2, balance N2). […]
On day 5, fluorescent signal was measured using a BioTek plate reader (excitation 485 nm, emission 528 nm). […]

| IC50 (Erythrocyte, P. falciparum 3D7 in erythrocytes, 5% haematocrit, 0.5% parasitaemia, 72 h incubation, SYBR green fluorescence, read-out: IC50) [nM] | Structure (SMILES) | IC50 (3D7, Erythrocyte, 72 h) [nM] |
| --- | --- | --- |
| 5 | C[C@@H]1C[C@H](N2C(=N)N[C@](C)(c3cccc(NC(=O)c4cncn4CC(F)(F)F)c3Cl)CC2=O)CCC1(F)F [Example 1, N-(2-Chloro-3-{(4S)-1-[(1R,3R)-4,4-difluoro-3-methylcyclohexyl]-2-imino-4-methyl-6-oxohexahydropyrimidin-4-yl}phenyl)-3-(2,2,2-trifluoroethyl)imidazole-4-carboxamide] |  |
|  | CO[C@H]1C[C@@H](N2C(=N)N[C@](C)(c3cccc(NC(=O)c4cncn4CC(F)(F)F)c3Cl)CC2=O)CCC1(F)F (relative stereo) [Example 2, N-(2-Chloro-3-{(4S)-1-[(1S*, 3S*)-4,4-difluoro-3-methoxycyclohexyl]-2-imino-4-methyl-6-oxohexahydropyrimidin-4-yl}phenyl)-3-(2,2,2-trifluoroethyl)imidazole-4-carboxamide hydrochloride] | 4.2 |
